Test: Human HepG2 cell viability assay in 384 well format
Type: toxicity, cell-based
Parameters: dose 125 nL, time 70.5 hour; concentration not given beside the values
Settings: HepG2 cells, read-out: Inhibition

Row | Compound | cytotoxicity at 70.5 h [%]
1 | Cc1ccc(NC(=O)c2cc(S(=O)(=O)N3CCCCC3)c[nH]2)cc1F | -8.62
2 | CCOc1ccc(NC(=O)c2cnc(N3CCCC3)nc2C)cc1 | -15.6
3 | COc1ccc(C2=C(C)C(N3CCc4ccccc4C3)=NS2(=O)=O)cc1 | 48.7
4 | COC(=O)c1ccccc1NC(=O)c1nc2ccccc2n(C)c1=O | 32.8
5 | Cc1ccc(C2CCCCCN2Cc2cn(C)nc2C)cc1 (centres undefined) | -12.1
6 | Cc1ccc(C2CCCCCN2Cc2cn(C)nc2C)s1 (centres undefined) | -19.6
7 | COc1cccc(CN2CCCCCC2c2cccs2)c1O (centres undefined) | -6.94
8 | CCOC(=O)CCNC(=O)N1CCN(c2nc3ccccc3n2C)CC1 | -9.85
9 | COc1cc(NC(=O)Cn2ccc3sc(C)cc3c2=O)cc(OC)c1 | -22
10 | CCS(=O)(=O)N1CCCc2ccc(NC(=O)Cc3ccc(F)cc3)cc21 | 36.7
11 | CCc1cnc2c(c1NCc1ccncc1)c(=O)n(C)c(=O)n2C | -8.17
12 | Cc1cnc2n(c1=O)C(CC(=O)NCc1cc(-c3cccs3)on1)CS2 (centres undefined) | 55.7
13 | Cc1sc(NC(=O)CN(C)S(C)(=O)=O)c(C#N)c1C | 10
14 | O=C(CSC1=NS(=O)(=O)c2cc(F)ccc2N1)Nc1cccc(Cl)c1 | -2.86
15 | O=S1(=O)N=C(SCc2ccc(Cl)cc2)Nc2ccc(F)cc21 | 7.01
16 | CNC(=O)CSc1cnn(CC(=O)Nc2cccc(Cl)c2C)c(=O)c1Cl | -16.3
17 | O=C(CCc1ccccc1)NCC1CCN(Cc2ccsc2)CC1 | 5.29
18 | CCCc1nnsc1C(=O)NCC1CCN(S(C)(=O)=O)CC1 | -4
19 | Cc1ccc(N2CCN(C(=O)COc3ccccc3)CC2)nn1 | -1.33
20 | COc1ccc(F)cc1S(=O)(=O)NCC(c1cccn1C)N(C)C (centres undefined) | -1.76
21 | Cc1ccnc(OCC(=O)N2CCC(C(N)=O)CC2)n1 | -4.44
22 | COCC(C)(O)CNC(=O)COc1ccccc1OC (centres undefined) | -3.09

Row | Compound | cytotoxicity at 70.5 h [%]
23 | O=C(c1ccc(=O)[nH]n1)N1CC(c2nc(Cc3ccccc3)no2)C1 | -0.421
24 | Cc1ncc(C(=O)N2CCC(C(=O)NC3CCCC3)C2)c(C)n1 (centres undefined) | -6.35
25 | CC(C)C(=O)N1CCC(c2nc3ccccn3c2NC(C)(C)C)CC1 | -10.5
26 | CC(C)(C)Nc1c(C2CCN(C(=O)C(C)(C)C)CC2)nc2ccccn12 | -4.87
27 | CCCC1c2cccn2CCN1C(=O)Cn1cnc2sc(C)cc2c1=O (centres undefined) | -12.3
28 | Cc1nc(O)cc([C@@H]2CN(S(=O)(=O)N(C)C)C[C@H]2c2ccccc2F)n1 | -8.96
29 | Cc1nc(O)cc([C@@H]2CN(C(=O)C3CC3)C[C@H]2c2ccccc2F)n1 | -2.23
30 | CCS(=O)(=O)N1C[C@@H](c2cc(O)nc(C)n2)[C@H](c2ccccc2F)C1 | 13.7
31 | CCC1CCCCN1C(=O)Cn1nc(-c2ccc(C)s2)cc(N)c1=O (centres undefined) | -2.23
32 | O=C(NCCc1cc2nc(-c3ccncc3)ccn2n1)C1CCOCC1 | -5.82
33 | Cc1cc(-c2cc(N)c(=O)n(CC(=O)NC3CCCC3)n2)c(C)o1 | -1.96
34 | Cc1cc(-c2cc(N)c(=O)n(CC(=O)N3CCCC(C)C3)n2)c(C)o1 (centres undefined) | -9.35
35 | CN1C[C@@H](C(=O)NC2CCCC2)[C@@]2(COc3ccc(F)cc3C2=O)C1 | -6.62
36 | CN1CCN(C(=O)[C@@H]2CN(C)C[C@]23COc2ccc(F)cc2C3=O)CC1 | 28.4
37 | Cn1nccc1C(=O)NCCN1CCC(O)(c2ccc(F)cc2)CC1 | 7.28
38 | O=C(Cn1cc(Cl)cn1)NCCN1CCC(O)(c2ccc(F)cc2)CC1 | 5.27
39 | CN(c1cccnn1)[C@@H]1CC[C@@H]2CN(Cc3ccccc3C(=O)O)C[C@@H]21 | -6.92
40 | CC1(C)O[C@@](C)([C@H]2CC3(CCN(c4cnccn4)CC3)CO2)CC[C@@H]1O | 1.78
41 | CN(C)Cc1cnc(C2CCN(C(=O)c3ccc(F)cc3)C2)[nH]1 (centres undefined) | -6.91
42 | CCCC1c2cccn2CCN1S(=O)(=O)N1CCOCC1 (centres undefined) | -4.73
43 | CC(=O)N1CCOC(CCc2cc(-c3c(C)noc3C)ncn2)C1 (centres undefined) | -0.21
44 | COc1cc(CCC(=O)N2CCC(c3cnccn3)CC2)on1 | -1.25

Row | Compound | cytotoxicity at 70.5 h [%]
45 | CCOCC(=O)N1C[C@@H](O)[C@H](N2CCN(c3ccccc3)CC2)C1 | -3.95
46 | Nc1nccc(C2CN(Cc3ccc(-c4ccccc4C(=O)O)o3)C2)n1 | 2.9
47 | CN(c1cccnn1)[C@@H]1CC[C@@H]2CN(Cc3cccc(C(=O)O)c3)C[C@@H]21 | -6.81
48 | CC1(C(N)=O)CN(CC2CCC2)CCO1 (centres undefined) | -2.2
49 | Cc1nn(C)c(C)c1-c1ccc(=O)n(C(C)C(=O)NC(C)(C)C)n1 (centres undefined) | 3.31
50 | Cn1ccnc1C(O)c1ccccc1N1CCN(Cc2cccs2)CC1 (centres undefined) | -0.023
51 | CCc1cc(O)n2nc(C3CCN(C(=O)c4ccccn4)CC3)cc2n1 | -0.453
52 | Cc1ncc(C(=O)N2CC(C(=O)N3CCCCCC3)C2)c(C)n1 | -4.02
53 | CCOc1cc([C@@H]2N[C@H](c3nccs3)Cc3ccsc32)ccc1OC | -3
54 | CCC1CCCCN1C(=O)Cn1nc(-c2cc(C)oc2C)cc(N)c1=O (centres undefined) | -3.58
55 | CC(C)NC(=O)[C@@H]1CN(C(=O)C2CC2)C[C@]12Cc1ccccc1C(=O)N2 | -3.78
56 | CC(=O)N1CCOCC(Cc2ccc3c(ccn3C)c2)C1 (centres undefined) | -0.747
57 | Cc1noc(C)c1-c1cc(CCC2CN(C(=O)CN)CCO2)ncn1 (centres undefined) | -2.94
58 | Cc1cc2ncc(CN(C)C)c(C3CCN(C)CC3)n2n1 | 13.7
59 | COC(=O)c1cccc(C2CNCCN2C(C)=O)c1 (centres undefined) | 21.6
60 | CC(=O)N1CCC(c2c(CN(C)C)cnc3cc(C)nn23)CC1 | 15.7
61 | Nc1cc(-c2c[nH]nc2C2CCCN2S(=O)(=O)c2ccccc2)ccn1 (centres undefined) | -2.78
62 | CN1CCCC(c2nnc3n2CCN(S(=O)(=O)c2ccccc2Cl)C3)C1 (centres undefined) | -9.93
63 | Nc1ncnc2nc(C3CCN(C(=O)Cc4ccc(F)cc4)C3)ccc12 (centres undefined) | -9.46
64 | CCC(=O)N1CCc2c(O)nc(C3CCCCN3C(=O)C3CC3)nc2C1 (centres undefined) | -3.59
65 | O=C1NC2(CCc3ccccc31)CCN(C(=O)c1cccnc1)C2 (centres undefined) | -13
66 | CCC(=O)N1CCCCC1c1nc(O)c2c(n1)CN(C(=O)C1CC1)CC2 (centres undefined) | -7.02

Row | Compound | cytotoxicity at 70.5 h [%]
67 | CCC(=O)N1CCCCC1c1nc(O)c2c(n1)CN(S(=O)(=O)CC)CC2 (centres undefined) | -13.9
68 | Cc1c[nH]nc1C1CN(Cc2cnn(-c3ccccc3C(=O)O)c2)C1 | -6.87
69 | CCCn1cc(Cl)c(C(=O)N2C[C@@H](O)[C@H](NC(C)=O)C2)n1 | -8.89
70 | CNc1cncc(C2CCCN2Cc2ccnc(N3CCCC3)n2)n1 (centres undefined) | 16.1
71 | O=S(=O)(c1cccs1)N1CCCCC1c1ccn[nH]1 (centres undefined) | -2.26
72 | Cc1c[nH]nc1C1CCCCN1C(=O)CC1(O)CCCCC1 (centres undefined) | -8.79
73 | Cc1ncsc1CN1C[C@@H](O)[C@](O)(CNC(=O)c2ccccn2)C1 | -10.6
74 | COc1ccc(CN2C[C@@H](O)[C@](O)(CNC(=O)c3ccccn3)C2)cc1 | -7.06
75 | CC(=O)N1C[C@@H](c2ccsc2)[C@@H]2CN(Cc3ccccc3C)CC[C@@H]21 | 18.9
76 | COc1cccc(CN2CCC(c3nnc(-c4cnc(C)cn4)o3)C2)c1 (centres undefined) | -13.5
77 | Cc1nc(Nc2nnc(C)s2)cc(C2CCCN2C)n1 (centres undefined) | 7.92
78 | CCN1CCC(c2cncc(N(C)C)n2)CC1 | 1.63
79 | CC(=O)N1CC(Cc2nccc3ccn(C)c23)C1 | -5.15
80 | c1ncc(Nc2nccc(C3CCCCN3CC3CCCCC3)n2)cn1 (centres undefined) | -2.27
81 | O=C(C1CC1)N1CCC(c2nc(O)c3c(n2)CCN(C2CCCC2)C3)C1 (centres undefined) | -6.87
82 | CC(=O)N1CCC(c2ccnc(Nc3cnccn3)n2)C1 (centres undefined) | -22.3
83 | CCC(=O)N1CCC(Cc2ccccc2-c2ccccc2)(C(N)=O)C1 (centres undefined) | -20.3
84 | Cc1nc(CCC(=O)NC2CCC2)cc(C2CCNCC2)n1 | 21.9
85 | Cc1noc(C)c1-c1cccc(CC2CCN(C(=O)c3cc[nH]n3)C2)n1 (centres undefined) | -18
86 | CC(=O)N1CCOC(c2cc(N3CC(O)C3)nc(C)n2)C1 (centres undefined) | -16.5
87 | CC(C)C(=O)N(C)Cc1nc(N2CCCC2)ncc1-c1ccncc1 | -6.45
88 | CC(C)(C)Nc1c(C2CCCN(C(=O)C3CC3)C2)nc2ccccn12 (centres undefined) | 17

Row | Compound | cytotoxicity at 70.5 h [%]
89 | Cc1ccc(C2(CN3CCN(Cc4cn(C)nc4C)CC3)CC2)cc1 | -11.3
90 | Cn1cc(CN2CCN(CC3(c4ccccc4)CC3)CC2)cn1 | -11.2
91 | CN1CCCC1c1cc2cccnc2n1Cc1ccc(F)cc1 (centres undefined) | -5.23
92 | O[C@@H]1CN(Cc2cccc(F)c2)CC[C@H]1NCc1ccccn1 | 12.7
93 | CCc1nc(-c2cncnc2C2CCCNC2)no1 (centres undefined) | -1.26
94 | FC(F)CNc1cnc(C2CCCN2)cn1 (centres undefined) | 3.12
95 | COc1cccc(Nc2nc(C3CCNCC3)c3sc(C)c(C)n23)c1 | -7.32
96 | Cc1sc2c(C3CCCNC3)nc(Nc3cccc(F)c3)n2c1C (centres undefined) | -5.08
97 | COc1cccc(Nc2nc(C3CCCNC3)c3ccccn23)c1 (centres undefined) | -7.29
98 | Cc1sc2c(C3CCNCC3)nc(Nc3cccc(F)c3)n2c1C | 15.7
99 | COc1cccc(-c2noc(C3CCN(Cc4ccccc4F)C3)n2)c1 (centres undefined) | 38.2
100 | COc1cccc(-c2noc(C3CCN(Cc4ccc(C)cc4)C3)n2)c1 (centres undefined) | 23.2
101 | COc1cccc(-c2noc(C3CCN(Cc4ccccc4C)C3)n2)c1 (centres undefined) | 13.9
102 | O=C(CN1CCN(CC(O)C2CC2)CC1)NCc1ccc(F)cc1 (centres undefined) | -0.525
103 | COC(=O)CN1CC(c2nc(Cc3ccccc3)no2)C1 | -6.57
104 | CCC(CN1CCCCC1)NC(=O)C1(c2ccc(F)cc2)CC1 (centres undefined) | -7.64
105 | Cc1ccc(CN(CCCN(C)C)Cc2cnc(N(C)C)nc2)o1 | 6.47
106 | Cc1ccc(CN(CCCN2CCOCC2)Cc2cnn(C)c2)o1 | 0.657
107 | Cc1noc(C)c1-c1cccc(C2CN(CC(=O)N(C)C)CCO2)n1 (centres undefined) | -4.85
108 | Cc1cccc(Nc2cc(C3CCCN(CC(N)=O)C3)ccn2)n1 (centres undefined) | 22.5
109 | COc1ccc(OCCc2cc(C3CCN(CC(C)C)C3)n[nH]2)cc1 (centres undefined) | -2.33

From ChEMBL document CHEMBL3507680, “University of Dundee, Gates Library screen for HepG2 cell viability”
